Test results reported in patent US20250134874A1, “PHARMACEUTICAL FORMULATIONS COMPRISING 3-({[(4R)-7-{METHYL[4-(PROPAN-2-YL)PHENYL]AMINO}-3,4-DIHYDRO-2H-1-BENZOPYRAN-4-YL]METHYL}AMINO)PYRIDINE-4-CARBOXYLIC ACID” (TACHYON THERAPEUTICS, INC., priority 2021, published 2025).

Test system: 301 cancer cell lines from different tumor types (OncoPanel; HD Biosciences)
Assay: 2D cell viability inhibition assay (CellTiter-Glo) in cancer cell line panel
Format: cell-based
Conditions: Homo sapiens
Experimental: In a larger screening study, compound 1 was evaluated across a broad cancer cell line panel (OncoPanel; HD Biosciences) composed of 301 cancer cell lines from different tumor types.
2D cell viability inhibition assays were performed in multiwell plates seeded with cells from the panel. After seeding, the plates were cultured overnight in a humidified incubator at 37° C. to promote adherence. Assays were initiated in individual wells by adding either DMSO as a vehicle control, growth media as a blank, or serially diluted compound 1 (10 μM to 0.0005 μM with 1:3 serial dilution). Cultures were incubated for 168 hours after which the number of viable cells in each test well was assessed using the CellTiter-Glo® Luminescent Cell Viability Assay. Luminescence readouts were performed using an EnVision® Multilabel Reader and the compound 1 readouts were normalized to the DMSO control readouts, expressed as a percent of the control. Outliers were flagged out by visual inspection. Percent of control was plotted against the corresponding compound 1 concentration and the absolute IC50 value was determined using four-parameter logistic non-linear regression as the concentration where inhibition was 50% of the control. For maximum inhibition <50%, the absolute IC50 was reported as >10. In addition to EC50 and IC50, AUC was determined and was normalized to the area corresponding to theoretical no-inhibition (the rectangular area defined by the compound dose range and 0 to 100 in y). Emax was recorded as the minimum in y with the compound dose range. For those cell lines where Emax>40, EC50 was manually set to 10 μM. A hierarchical clustering algorithm based on Euclidean distance between the standardized input values and “Ward.D” method as implemented in R hclust function was used to visualize the compound 1 cellular potency data. The sensitive/moderate/resistant calls for each cell line was determined by visually inspecting the resulting clustering dendrogram. All the analyses were done in R Core Team.

SMILES: CC(C)c1ccc(N(C)c2ccc3c(c2)OCC[C@H]3CNc2cnccc2C(=O)O)cc1 [Compound 1, 3-({[(4R)-7-{methyl[4-(propan-2-yl)phenyl]amino}-3,4-dihydro-2H-1-benzopyran-4-yl]methyl}amino)pyridine-4-carboxylic acid]
- EC50 (KYSE-30, KYSE30 cell line): ≥ 10000 nM
- IC50 (KYSE-30, KYSE30 cell line): 2.43 nM
- IC50 (KYSE-70, 168 h, KYSE70, oesophagus, squamous cell carcinoma, 168 hours): > 10000 nM
- EC50 (KYSE-150, KYSE150 cell line): 4.41 nM
- IC50 (KYSE-150, KYSE150 cell line): 5.1 nM
- EC50 (KYSE-270, KYSE270 cell line): 5.11 nM
- IC50 (KYSE-270, KYSE270 cell line): 5.35 nM
- EC50 (KYSE-410, KYSE410 cell line): 5.47 nM
- IC50 (KYSE-410, KYSE410 cell line): 8.25 nM
- EC50 (KYSE-510, KYSE510 cell line): 3.42 nM
- IC50 (KYSE-510, KYSE510 cell line): 3.4 nM
- IC50 (Kasumi 1, 168 h, KASUMI1, haematopoietic and lymphoid tissue, acute myeloid leukaemia, 168 hours): > 10000 nM
- EC50 (LNCaP, LNCAP cell line): 3.54 nM
- IC50 (LNCaP, LNCAP cell line): 4.65 nM
- EC50 (LS-411N, LS411N cell line): 16.8 nM
- IC50 (LS-411N, LS411N cell line): 16.7 nM
- IC50 (LoVo, LOVO cell line): 57.8 nM
- EC50 (Lu-65, LU65 cell line): 7.19 nM
- IC50 (Lu-65, LU65 cell line): 10.6 nM
- IC50 (Lu-99, 168 h, LU99, lung, large cell carcinoma, 168 hours): > 10000 nM
- EC50 (MC116, MC116 cell line): 5.21 nM
- IC50 (MC116, MC116 cell line): 4.6 nM
- IC50 (MCF7, MCF7 cell line): 435 nM
- IC50 (MDA-MB-157, 168 h, MDAMB157, breast, ductal carcinoma, 168 hours): > 10000 nM
- IC50 (MDA-MB-175-VII, 168 h, MDAMB175VII, breast, ductal carcinoma): > 10000 nM
- IC50 (MDA-MB-231, 168 h, MDAMB231, breast, NS, 168 hours): > 10000 nM
- IC50 (MDA-MB-361, 168 h, MDAMB361, breast, NS, 168 hours): > 10000 nM
- IC50 (MDA-MB-415, 168 h, MDAMB415, breast, NS, 168 hours): > 10000 nM
- IC50 (MDA-MB-436, 168 h, MDAMB436, breast, NS, 168 hours): > 10000 nM
- EC50 (MDA-MB-453, MDAMB453 cell line): 8.03 nM
- IC50 (MDA-MB-453, MDAMB453 cell line): 10.4 nM
- IC50 (MDA-MB-468, 168 h, MDAMB468, breast, NS, 168 hours): > 10000 nM
- EC50 (MES-SA, MESSA cell line): 9 nM
- IC50 (MES-SA, MESSA cell line): 14.3 nM
- EC50 (MIA PaCa-2, MIAPACA2 cell line): 5.28 nM
- IC50 (MIA PaCa-2, MIAPACA2 cell line): 7.02 nM
- EC50 (MKN-1, MKN1 cell line): 4.33 nM
- IC50 (MKN-1, MKN1 cell line): 5.75 nM
- EC50 (MKN-45, MKN45 cell line): 11 nM
- IC50 (MKN-45, MKN45 cell line): 13.5 nM
- EC50 (MOLT-4, MOLT4 cell line): 0.508 nM
- IC50 (MOLT-4, MOLT4 cell line): 1.25 nM
- EC50 (MV4-11, MV411 cell line): 3.92 nM
- IC50 (MV4-11, MV411 cell line): 4.02 nM
- IC50 (Malme-3M, 168 h, MALME3M, skin, NS): > 10000 nM
- IC50 (MeWo, 168 h, skin, NS): > 10000 nM
- EC50 (NCI-H23, NCIH23 cell line): 37.7 nM
- IC50 (NCI-H23, NCIH23 cell line): 42.7 nM
- EC50 (NCI-H69, NCIH69 cell line): 7.14 nM
- IC50 (NCI-H69, NCIH69 cell line): 7.09 nM
- EC50 (NCI-H82, NCIH82 cell line): 3.31 nM
- IC50 (NCI-H82, NCIH82 cell line): 3.54 nM
- EC50 (NCI-H209, NCIH209 cell line): 1.48 nM
- IC50 (NCI-H209, NCIH209 cell line): 1.31 nM
- EC50 (NCI-H358, NCIH358 cell line): 3.05 nM
- IC50 (NCI-H358, NCIH358 cell line): 6.57 nM
- IC50 (NCI-H441, 168 h, NCIH441, lung, adenocarcinoma, 168 hours): > 10000 nM
- EC50 (NCI-H446, NCIH446 cell line): 14.5 nM
- IC50 (NCI-H446, NCIH446 cell line): 119 nM
- EC50 (NCI-H460, NCIH460 cell line): 11.1 nM
- IC50 (NCI-H460, NCIH460 cell line): 11.6 nM
- EC50 (NCI-H508, NCIH508 cell line): 9.16 nM
- IC50 (NCI-H508, NCIH508 cell line): 10.2 nM
- EC50 (NCI-H520, NCIH520 cell line): 5.06 nM
- IC50 (NCI-H520, NCIH520 cell line): 5.9 nM
- EC50 (NCI-H522, NCIH522 cell line): 11.5 nM
- IC50 (NCI-H522, NCIH522 cell line): 17.4 nM
- EC50 (NCI-H524, NCIH524 cell line): 4.98 nM
- IC50 (NCI-H524, NCIH524 cell line): 6.85 nM
- IC50 (NCI-H596, 168 h, NCIH596, lung, mixed adenosquamous carcinoma, 168 hours): > 10000 nM
- EC50 (NCI-H647, NCIH647 cell line): 6.04 nM
- IC50 (NCI-H647, NCIH647 cell line): 9.84 nM
- EC50 (NCI-H661, NCIH661 cell line): 9.06 nM
- IC50 (NCI-H661, NCIH661 cell line): 9.73 nM
- EC50 (NCI-H716, NCIH716 cell line): 5.77 nM
- IC50 (NCI-H716, NCIH716 cell line): 9.51 nM
- EC50 (NCI-H929, NCIH929 cell line): 20.6 nM
- IC50 (NCI-H929, NCIH929 cell line): 34.5 nM
- EC50 (NCI-H1048, NCIH1048 cell line): 0.508 nM
- IC50 (NCI-H1048, NCIH1048 cell line): 0.706 nM
- EC50 (NCI-H1092, NCIH1092 cell line): 3.93 nM
- IC50 (NCI-H1092, NCIH1092 cell line): 7.16 nM
- EC50 (NCI-H1155, NCIH1155 cell line): 0.884 nM
- IC50 (NCI-H1155, NCIH1155 cell line): 0.765 nM
- EC50 (NCI-H1299, NCIH1299 cell line): 5.38 nM
- IC50 (NCI-H1299, NCIH1299 cell line): 7.5 nM
- EC50 (NCI-H1355, NCIH1355 cell line): ≥ 10000 nM
- IC50 (NCI-H1355, NCIH1355 cell line): 20.6 nM
- IC50 (NCI-H1395, 168 h, NCIH1395, lung, adenocarcinoma, 168 hours): > 10000 nM
- EC50 (NCI-H1436, NCIH1436 cell line): ≥ 10000 nM
- IC50 (NCI-H1436, NCIH1436 cell line): 8.75 nM
- EC50 (NCI-H1437, NCIH1437 cell line): 9.48 nM
- IC50 (NCI-H1437, NCIH1437 cell line): 13.1 nM
- IC50 (NCI-H1563, 168 h, NCIH1563, lung, adenocarcinoma, 168 hours): > 10000 nM
- IC50 (NCI-H1573, 168 h, NCIH1573, lung, adenocarcinoma, 168 hours): > 10000 nM
- EC50 (NCI-H1623, NCIH1623 cell line): 8.13 nM
- IC50 (NCI-H1623, NCIH1623 cell line): 18.9 nM
- IC50 (NCI-H1650, 168 h, NCIH1650, lung, bronchioloalveolar adenocarcinoma, 168 hours): > 10000 nM
- EC50 (NCI-H1666, NCIH1666 cell line): 0.508 nM
- IC50 (NCI-H1666, NCIH1666 cell line): 1.17 nM
- EC50 (NCI-H1694, NCIH1694 cell line): 0.508 nM
- IC50 (NCI-H1694, NCIH1694 cell line): 1.75 nM
- EC50 (NCI-H1703, NCIH1703 cell line): 4.88 nM
- IC50 (NCI-H1703, NCIH1703 cell line): 8.05 nM
- IC50 (NCI-H1734, NCIH1734 cell line): > 10000 nM
- IC50 (NCI-H1755, 168 h, NCIH1755, lung, adenocarcinoma, 168 hours): > 10000 nM
- EC50 (NCI-H1793, NCIH1793 cell line): 8.36 nM
- IC50 (NCI-H1793, NCIH1793 cell line): 15.3 nM
- EC50 (NCI-H1836, NCIH1836 cell line): 4.88 nM
- IC50 (NCI-H1836, NCIH1836 cell line): 6.07 nM
- IC50 (NCI-H1838, 168 h, NCIH1838, lung, non-small cell carcinoma, 168 hours): > 10000 nM
- EC50 (NCI-H1930, NCIH1930 cell line): 6.62 nM
- IC50 (NCI-H1930, NCIH1930 cell line): 20 nM
